Results on 32 molecules are retold here after patent US20150225369A1, “DDR2 INHIBITORS FOR THE TREATMENT OF OSTEOARTHRITIS” (Merck Patent GmbH, priority 2012, published 2015).

Some results are limits rather than exact numbers.

In this assay the target is T1, His-tagged human recombinant DDR-2 kinase domain (His-TEV-DDR2 467-855 aa) (Homo sapiens, UniProt Q16832).
T1 construct: His-TEV-DDR2 467-855 aa
T1 sequence (Q16832 467-855): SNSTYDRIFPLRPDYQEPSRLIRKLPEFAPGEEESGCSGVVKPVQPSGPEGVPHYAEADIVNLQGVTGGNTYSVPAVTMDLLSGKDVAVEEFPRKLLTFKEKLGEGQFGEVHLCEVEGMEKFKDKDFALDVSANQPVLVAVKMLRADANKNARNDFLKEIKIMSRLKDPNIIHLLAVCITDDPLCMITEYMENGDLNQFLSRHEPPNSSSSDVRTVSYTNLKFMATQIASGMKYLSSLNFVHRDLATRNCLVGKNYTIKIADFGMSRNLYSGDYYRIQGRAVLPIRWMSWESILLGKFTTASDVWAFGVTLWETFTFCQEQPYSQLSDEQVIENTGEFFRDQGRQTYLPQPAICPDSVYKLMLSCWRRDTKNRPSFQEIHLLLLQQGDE
As to the kind of experiment: Autophosphorylation assay for biochemical activity testing of DDR2 (HTRF). The following applies: biochemical DDR2 autophosphorylation. The procedure: The autophosphorylation assay was run in two steps: the enzymatic reaction in which His-tagged DDR2 with ATP as co-substrate phosphorylates itself and the detection reaction where a time resolved FRET between XL665® labelled anti-6His antibody bound to the His-tag of the enzyme and cryptate labelled anti-phospho-Tyrosine-antibody (PT66) bound the phosphorylated Tyrosine residue of DDR2 was analysed. The autophosphorylation activity was detectable directly via the increase in HTRF signal.
The autophosphorylation assay was performed as 1536 well or 384 well HTRF® (Cisbio, Codolet, France) assay format in Greiner low volume medium binding 384-well microtiter plates and was used for high throughput screen. […] The ratio of the emission signals was determined. The full value used was the inhibitor-free reaction.
As usually defined, the IC50 is the midpoint of a concentration-inhibition curve. For `COc1ccccc1NC(=O)NCc1ccc(Oc2ccncc2)cc1` [compound 36, 1-(2-Methoxy-phenyl)-3-[4-(pyridin-4-yloxy)-benzyl]-urea], the 50% inhibitory concentration (IC50) stood at 1700 nM.

As to `O=C(NCc1ccc(Oc2ccncc2)cc1)Nc1ccc(C(F)(F)F)cc1Cl` [compound 37, 1-(2-Chloro-4-trifluoromethyl-phenyl)-3-[4-(pyridin-4-yloxy)-benzyl]-urea], the IC50 was determined as 2800 nM.

As for `O=C(NCc1ccc(Oc2ccncc2)cc1)Nc1ccc(Cl)c(Cl)c1` [compound 38, 1-(3,4-Dichloro-phenyl)-3-[4-(pyridin-4-yloxy)-benzyl]-urea], the IC50 came out at 2100 nM.

With `O=C(NCc1ccc(Oc2ccncc2)cc1)Nc1ccc(Cl)cc1C(F)(F)F` [compound 40, 1-(4-Chloro-2-trifluoromethyl-phenyl)-3-[4-(pyridin-4-yloxy)-benzyl]-urea], the concentration for half-maximal inhibition (IC50) worked out at 9900 nM.

Take `CCOc1ccc(NC(=O)NCc2ccc(Oc3ccncc3)cc2)cc1` [compound 41, 1-(4-Ethoxy-phenyl)-3-[4-(pyridin-4-yloxy)-benzyl]-urea]: the IC50 was no less than 100000 nM.

For `O=C(NCc1ccc(Oc2ccncc2)cc1)Nc1cc(C(F)(F)F)ccc1Cl` [compound 43, 1-(2-Chloro-5-trifluoromethyl-phenyl)-3-[4-(pyridin-4-yloxy)-benzyl]-urea], the IC50 was 42 nM.

As to `Cc1cc(C)cc(NC(=O)NCc2ccc(Oc3ccncc3)cc2)c1` [compound 44, 1-(3,5-Dimethyl-phenyl)-3-[4-(pyridin-4-yloxy)-benzyl]-urea], the half-maximal inhibitory concentration (IC50) was 1800 nM.

`COc1cccc(NC(=O)NCc2ccc(Oc3ccncc3)cc2)c1` [compound 45, 1-(3-Methoxy-phenyl)-3-[4-(pyridin-4-yloxy)-benzyl]-urea]: the 50% inhibitory concentration (IC50) stood at 4000 nM.

Turning to `O=C(NCc1ccc(Oc2ccncc2)cc1)Nc1ccc(F)c(C(F)(F)F)c1` [compound 46, 1-(4-Fluoro-3-trifluoromethyl-phenyl)-3-[4-(pyridin-4-yloxy)-benzyl]-urea], the half-maximal inhibitory concentration (IC50) came to 100 nM.

Consider `CC(=O)c1ccc(NC(=O)NCc2ccc(Oc3ccncc3)cc2)cc1` [compound 47, 1-(4-Acetyl-phenyl)-3-[4-(pyridin-4-yloxy)-benzyl]-urea], for which the IC50 turned out to be 8800 nM.

For the molecule `O=C(NCc1ccc(Oc2ccncc2)cc1)Nc1ccccc1Br` [compound 48, 1-(2-Bromo-phenyl)-3-[4-(pyridin-4-yloxy)-benzyl]-urea], the IC50 was no less than 100000 nM.

Regarding `CC(C)c1ccc(NC(=O)NCc2ccc(Oc3ccncc3)cc2)cc1` [compound 49, 1-(4-Isopropyl-phenyl)-3-[4-(pyridin-4-yloxy)-benzyl]-urea], the half-inhibitory concentration (IC50) is 9600 nM.

For the molecule `Cc1ccc(Cl)cc1NC(=O)NCc1ccc(Oc2ccncc2)cc1` [compound 50, 1-(5-Chloro-2-methyl-phenyl)-3-[4-(pyridin-4-yloxy)-benzyl]-urea], the 50% inhibitory concentration (IC50) was 1700 nM.

For `CSc1ccc(NC(=O)NCc2ccc(Oc3ccncc3)cc2)cc1` [compound 51, 1-(4-Methylsulfanyl-phenyl)-3-[4-(pyridin-4-yloxy)-benzyl]-urea], the IC50 was 10000 nM.

On to `CCc1ccc(NC(=O)NCc2ccc(Oc3ccncc3)cc2)cc1` [compound 52, 1-(4-Ethyl-phenyl)-3-[4-(pyridin-4-yloxy)-benzyl]-urea], for which the IC50 was determined as 9900 nM.

Consider `O=C(NCc1ccc(Oc2ccncc2)cc1)Nc1cccc(Br)c1` [compound 53, 1-(3-Bromo-phenyl)-3-[4-(pyridin-4-yloxy)-benzyl]-urea], for which the IC50 was 56 nM.

In the case of `Cc1cc(Cl)ccc1NC(=O)NCc1ccc(Oc2ccncc2)cc1` [compound 54, 1-(4-Chloro-2-methyl-phenyl)-3-[4-(pyridin-4-yloxy)-benzyl]-urea], the IC50 was no less than 100000 nM.

Turning to `O=C(NCc1ccc(Oc2ccncc2)cc1)Nc1ccc(OC(F)(F)F)cc1` [compound 55, 1-[4-(Pyridin-4-yloxy)-benzyl]-3-(4-trifluoromethoxy-phenyl)-urea], the concentration for half-maximal inhibition (IC50) turned out to be 7500 nM.

Turning to `CC(C)(C)c1ccc(NC(=O)NCc2ccc(Oc3ccncc3)cc2)cc1` [compound 56, 1-(4-tert-Butyl-phenyl)-3-[4-(pyridin-4-yloxy)-benzyl]-urea], the IC50 turned out to be 16000 nM.

Turning to `O=C(NCc1ccc(Oc2ccncc2)cc1)Nc1cc(Cl)cc(Cl)c1` [compound 57, 1-(3,5-Dichloro-phenyl)-3-[4-(pyridin-4-yloxy)-benzyl]-urea], the concentration for half-maximal inhibition (IC50) came to 1200 nM.

Take `Cc1cc(NC(=O)NCc2ccc(Oc3ccncc3)cc2)ccc1Br` [compound 58, 1-(4-Bromo-3-methyl-phenyl)-3-[4-(pyridin-4-yloxy)-benzyl]-urea]: the IC50 is 4700 nM.

With `Cc1ccc(NC(=O)NCc2ccc(Oc3ccncc3)cc2)cc1C` [compound 59, 1-(3,4-Dimethyl-phenyl)-3-[4-(pyridin-4-yloxy)-benzyl]-urea], the IC50 was determined as 2100 nM.

Consider `COc1ccc(NC(=O)NCc2ccc(Oc3ccncc3)cc2)cc1Cl` [compound 60, 1-(3-Chloro-4-methoxy-phenyl)-3-[4-(pyridin-4-yloxy)-benzyl]-urea], for which the half-inhibitory concentration (IC50) worked out at 2800 nM.

As to `CCc1cccc(NC(=O)NCc2ccc(Oc3ccncc3)cc2)c1` [compound 61, 1-(3-Ethyl-phenyl)-3-[4-(pyridin-4-yloxy)-benzyl]-urea], the 50% inhibitory concentration (IC50) was 490 nM.

For `COc1ccc(C(F)(F)F)cc1NC(=O)NCc1ccc(Oc2ccncc2)cc1` [compound 62, 1-(2-Methoxy-5-trifluoromethyl-phenyl)-3-[4-(pyridin-4-yloxy)-benzyl]-urea], the IC50 is 2 nM.

Take `CNC(=O)c1cc(Oc2ccc(CNC(=O)Nc3cc(C(F)(F)F)ccc3OC)cc2)ccn1` [compound 63, 4-{4-[3-(2-Methoxy-5-trifluoromethyl-phenyl)-ureidomethyl]-phenoxy}-pyridine-2-carboxylic acid methylamide]: the IC50 came to 61 nM.

In the case of `O=C(NCc1ccc(Oc2ccncc2)cc1)Nc1ccc(Br)c(C(F)(F)F)c1` [compound 64, 1-(4-Bromo-3-trifluoromethyl-phenyl)-3-[4-(pyridin-4-yloxy)-benzyl]-urea], the concentration for half-maximal inhibition (IC50) worked out at 1700 nM.

As for `O=C(NCc1ccc(Oc2ccncc2)cc1)Nc1cccc(OC(F)(F)F)c1` [compound 65, 1-[4-(Pyridin-4-yloxy)-benzyl]-3-(3-trifluoromethoxy-phenyl)-urea], the 50% inhibitory concentration (IC50) is 35 nM.

As for `CNC(=O)c1cc(Oc2ccc(CNC(=O)Nc3cc(C(F)(F)F)c(Cl)cc3OC)cc2)ccn1` [compound 67, 4-{4-[3-(4-Chloro-2-methoxy-5-trifluoromethyl-phenyl)-ureidomethyl]-phenoxy}-pyridine-2-carboxylic acid methylamide], the IC50 was determined as 175 nM.

For the molecule `O=C(Nc1ccc(Cl)c(C(F)(F)F)c1)NC1(c2ccc(Oc3ccncc3)cc2)CC1` [compound 68, 1-(4-Chloro-3-trifluoromethyl-phenyl)-3-{1-[4-(pyridin-4-yloxy)-phenyl]-cyclopropyl}-urea], the concentration for half-maximal inhibition (IC50) was 4600 nM.

With `CNC(=O)c1cc(Oc2ccc(C(C)NC(=O)Nc3cc(C(F)(F)F)ccc3OC)cc2)ccn1` (centres unmarked) [compound 69, 4-(4-{1-[3-(2-Methoxy-5-trifluoromethyl-phenyl)-ureido]-ethyl}-phenoxy)-pyridine-2-carboxylic acid methylamide], the IC50 is 150 nM.

Take `CNC(=O)c1cc(Oc2ccc(CNC(=O)Nc3cc(C)ccc3OC)cc2)ccn1` [compound 75, 4-{4-[3-(2-Methoxy-5-methyl-phenyl)-ureidomethyl]-phenoxy}-pyridine-2-carboxylic acid methylamide]: the IC50 was 69 nM.
